Patent US8008328B2, “Methods for the treatment of diabetes-associated dyslipdemia” (Reddy US Therapeutics, Inc., priority 2007, dated 2011)

How the values were obtained:
THP-1 = experiment: Niacin-induced PGD2 secretion in PMA-differentiated THP-1 macrophages; type: cell-based, human; details: FIG. 4
[1] = tested on: insulin receptor substrate (IRS-1); experiment: IRS-1 Ser307 phosphorylation in differentiated 3T3L1 adipocytes (Western blot); type: cell-based, Murine; details: FIG. 1; for IRS-1 phosphorylation: agent alone compared to untreated, 3T3L1 adipocytes
db/db mice = experiment: Plasma insulin and lipids in db/db diabetic mouse model; type: in vivo
Experimental: The animals were 40 Female db/db diabetic mice, 4 weeks old on a diet of normal rodent chow. The tests were conducted on five groups, with 7-8 mice per group.
Group 1: Control CMC-tween, oral pipetting, 7 mice. Once a day for 28 days, 60 μl/mouse.
Group 2: Niacin 2.5 g/kg (roughly), in drinking water for 28 days, 7 mice (10 mg/mL in water).
Once a day for 28 days, 30 ul/mouse. (2 mg/mL in water)
Group 5: Pioglitazone 30 mg/kg/day, oral pipetting, 7 mice. Once a day for 28 days, 60 μL/mouse. (15 mg/mL in Vehicle)
Body weight was measured in all groups once a week. Food consumption was monitored once a week. All animals were fasted for 4 hours and plasma glucose levels were measured by OneTouch™ Ultra blood glucose meter. 35 animals were divided to 5 groups with 7 mice per group base on plasma glucose level. (Plasma glucose >120 mg/dL as a cut off for animal selection). 200 μL blood samples were collected from retro-orbital vein for plasma insulin level and lipids profile at baseline.
Treatment started for all groups and lasted for 28 days. 4 hours fast blood samples were collected for plasma insulin level and lipids profile at 2 weeks and 4 weeks post dose. The Oral Glucose Tolerance Test (“OGTT”) was conducted at day 16 and day 30 post dose.

[2] = db/db diabetic dyslipidemia model, FIG. 3

Row | Compound | effect on niacin-induced increase in PGD2 levels (THP-1; compound 30 minutes prior to niacin) | effect on TNFα-induced IRS1 phosphorylation ([1]; cells incubated with compound 2 hours prior to TNFα (20 ng/mL, 30 minutes)) | insulin levels (db/db mice; db/db mice, 2 mg/kg/day for two weeks) | plasma insulin (db/db mice; db/db mice, treatment up to 28 days, FIG. 2) | effect on niacin's ability to increase HDL or decrease triglycerides (db/db mice; meloxicam added to niacin, db/db mice, FIG. 3) | PGD2 levels in culture medium (THP-1; compared to controls) | IRS-1 phosphorylation [1] | HDL (db/db mice; [2]) | triglycerides (db/db mice; [2])
1 | Cc1cnc(NC(=O)C2=C(O)c3ccccc3S(=O)(=O)N2C)s1 [meloxicam] | inhibited | inhibited | reduced | significantly reduced | did not affect |  |  |  | 
2 | O=C(O)c1cccnc1 [niacin, pyridine-3-carboxylic acid] |  |  |  |  |  | increased | significantly increased | increase | decrease
3 | TNFα |  |  |  |  |  |  | increased |  | 
